In ChEMBL document CHEMBL5661943, “ASAP - In vitro antiviral effect” (2024):
“And” between values parts separate entries of the source, which are not always exact repeats. Equal entries are not always repeated.

How the values were obtained:
dengue virus type 2 [1] = assay: Functional immunofluorescence assay to measure dose dependent changes in antiviral-drug inhibitory efficacy against Dengue virus type 2 Thailand/16681/84 in Vero E6/TMPRSS2 cells (cotreated with P-gp inhibitor, Elacridar). Cells are treated with antiviral candidates that are serially diluted, following infection, cells are fixed. EC50 is reported via analysis of immunofluorescence staining. The assay has been performed by Icahn School of Medicine at Mount Sinai.; format: organism-based, Chlorocebus sabaeus, VeroE6/TMPRSS2
Zika virus [2] = assay: EC50 is reported via analysis of immunofluorescence staining. The assay has been performed by Icahn School of Medicine at Mount Sinai.; format: functional, organism-based, Chlorocebus sabaeus, VeroE6/TMPRSS2; details: for EC90: P-gp concentration 2 uM, P-gp inhibitor Elacidar
Zika virus [3] = assay: Functional CPE-based assay to measure dose dependent changes in antiviral-drug inhibitory efficacy against Zika virus MR766 in Vero E6 miRFP670 cells (cotreated with P-gp inhibitor, CP100356). Cells are treated with antiviral candidates that are serially diluted. EC50 is reported via analysis of MTS assay as a readout of CPE. The assay has been performed by KU Leuven.; format: organism-based, Chlorocebus sabaeus, Vero C1008; details: for EC90: Baseline response 0 %, Maximum response 100 %, P-gp concentration 500 nM, P-gp inhibitor CP100356
dengue virus type 2 [4] = assay: Functional assay to measure dose dependent changes in antiviral-drug inhibitory efficacy against Dengue virus type 2 New Guinea C in Vero E6 miRFP670 cells (cotreated with P-gp inhibitor, CP100356). Cells are treated with antiviral candidates that are serially diluted, following infection, cells are fixed. EC50 is reported via analysis of fluorescence intensity using high-content imager. The …; format: organism-based, Chlorocebus sabaeus, Vero C1008; details: for EC90: P-gp concentration 500 nM, P-gp inhibitor CP100356

NCc1cccc([C@@H]2C[C@H]2c2cc(Cl)cc(NC(=O)OCc3ccccc3)c2)c1
EC50 (dengue virus type 2 [1]; Dengue virus, VeroE6/TMPRSS2): > 5.56 µM | EC90 (dengue virus type 2 [1]; Dengue virus, VeroE6/TMPRSS2, Maximum measured 134.824 %, Minimum measured 97.991 %, P-gp concentration 2 uM, P-gp inhibitor Elacidar): > 5.56 µM | EC50 (Zika virus [2]; Zika virus, VeroE6/TMPRSS2): > 5.56 µM | EC90 (Zika virus [2]; Zika virus, VeroE6/TMPRSS2, Maximum measured 125.497 %, Minimum measured 83.326 %): > 5.56 µM

C=CC[C@H](Nc1cc(Cl)cc(NC(=O)OCc2ccccc2)c1)c1cccc(-c2nn[nH]n2)c1
EC50 (dengue virus type 2 [1]; Dengue virus, VeroE6/TMPRSS2): 0.449 µM | EC90 (dengue virus type 2 [1]; Dengue virus, VeroE6/TMPRSS2): 4.92 µM | EC50 (Zika virus [2]; Zika virus, VeroE6/TMPRSS2): 14.2 µM | EC90 (Zika virus [2]; Zika virus, VeroE6/TMPRSS2, Baseline response 0 %, Hill slope -24.201, Maximum measured 231.442 %, Maximum response 100 %, Minimum measured 2.044 %, R squared 0.135): 15.6 µM

NCc1cccc(NC(=O)c2cc(Cl)cc(N3CCCC3=O)c2)c1
EC90 (dengue virus type 2 [1]; Dengue virus, VeroE6/TMPRSS2, Maximum measured 120.219 %, Minimum measured 55.49 %, P-gp concentration 2 uM, P-gp inhibitor Elacidar): > 10 µM | EC90 (dengue virus type 2 [1]; Dengue virus, VeroE6/TMPRSS2, Baseline response 0 %, Hill slope 0.068, Maximum measured 98.172 %, Maximum response 100 %, Minimum measured 58.193 %, P-gp concentration 2 uM, R squared 0.052, P-gp inhibitor Elacidar): > 50 µM | EC50 (dengue virus type 2 [1]; veroe6/tmprss2): > 50 µM | EC90 (Zika virus [2]; Baseline response 0 %, Hill slope 0.118, Maximum measured 129.177 %, Maximum response 100 %, Minimum measured 53.613 %, R squared 0.041): > 10 µM | EC90 (Zika virus [2]; Baseline response 0 %, Hill slope -0.203, Maximum measured 140.608 %, Maximum response 100 %, Minimum measured 78.837 %, R squared 0.028): > 50 µM | EC50 (Zika virus [2]; veroe6/tmprss2): > 50 µM

COCCNC(=O)[C@H](Nc1ccc2c(c1)CNC2)c1cc(Cl)cc(C2CC2)c1
EC90 (Zika virus [2]; Baseline response 0 %, Hill slope -0.71, Maximum measured 110.043 %, Maximum response 100 %, Minimum measured 53.247 %, R squared 0.662): > 5.56 µM | EC50 (Zika virus [2]; Zika virus, VeroE6/TMPRSS2): > 5.56 µM | EC90 (Zika virus [2]; Zika virus, VeroE6/TMPRSS2, Baseline response 0 %, Hill slope -0.244, Maximum measured 65.627 %, Maximum response 50 %, Minimum measured 21.531 %, R squared 0.09): > 5.56 µM | EC90 (Zika virus [3]; EC90 CI (lower) 3.438 uM, EC90 CI (upper) 13.705 uM, Hill slope 5.727, Maximum measured 103.141 %, Minimum measured 2.231 %, R squared 0.527): 6.86 µM | EC90 (Zika virus [3]; Hill slope 2.264, Maximum measured 83.807 %, Minimum measured -2.671 %, R squared 0.978): > 50 µM | EC50 (Zika virus [3]; vero c1008): 26 µM and 4.68 µM | EC50 (dengue virus type 2 [4]; Dengue virus, Vero C1008): 40.2 µM | EC90 (dengue virus type 2 [4]; Dengue virus, Vero C1008, Maximum measured 154.141 %, Minimum measured 87.25 %): > 50 µM | EC90 (dengue virus type 2 [4]; Dengue virus, Vero C1008, Baseline response 0 %, Hill slope -1.76, Maximum measured 106.994 %, Maximum response 100 %, Minimum measured 48.696 %, R squared 0.783): > 50 µM | EC50 (dengue virus type 2 [4]; vero c1008): > 50 µM

N#C[C@H](Nc1ccc2c(c1)CNC2)c1cc(Cl)cc(C2CC2)c1
EC50 (dengue virus type 2 [1]; Dengue virus, VeroE6/TMPRSS2): > 16.7 µM | EC90 (dengue virus type 2 [1]; Dengue virus, VeroE6/TMPRSS2, Maximum measured 136.887 %, Minimum measured 85.602 %, P-gp concentration 2 uM, P-gp inhibitor Elacidar): > 16.7 µM | EC50 (Zika virus [3]; Zika virus, Vero C1008): 19.3 µM | EC90 (Zika virus [3]; Zika virus, Vero C1008, Hill slope 4.333, Maximum measured 75.439 %, Minimum measured -2.703 %, R squared 0.979): > 25 µM | EC50 (dengue virus type 2 [4]; Dengue virus, Vero C1008): 45.6 µM | EC90 (dengue virus type 2 [4]; Dengue virus, Vero C1008, Baseline response 0 %, Hill slope -4.312, Maximum measured 125.602 %, Maximum response 100 %, Minimum measured 40.399 %, R squared 0.668): > 50 µM

CCc1cc(Cl)cc(C(=O)Nc2ccc3c(c2)CNC3)c1
EC50 (dengue virus type 2 [1]; Dengue virus, VeroE6/TMPRSS2): > 16.7 µM | EC90 (dengue virus type 2 [1]; Dengue virus, VeroE6/TMPRSS2, Baseline response 0 %, Hill slope -0.226, Maximum measured 109.554 %, Maximum response 100 %, Minimum measured 84.826 %, P-gp concentration 2 uM, R squared 0.106, P-gp inhibitor Elacidar): > 16.7 µM

Cc1ncc(-c2cc(F)cc(C(=O)Nc3ccc4c(c3)CNC4)c2)o1
EC50 (Zika virus [3]; Zika virus, Vero C1008): > 6.25 µM | EC90 (Zika virus [3]; Zika virus, Vero C1008, Hill slope 1.881, Maximum measured 43.228 %, Minimum measured 5.06 %, R squared 0.9): > 6.25 µM | EC50 (dengue virus type 2 [4]; Dengue virus, Vero C1008): 16.5 µM | EC90 (dengue virus type 2 [4]; Dengue virus, Vero C1008, Baseline response 0 %, Hill slope -0.224, Maximum measured 78.762 %, Maximum response 100 %, Minimum measured 32.755 %, R squared 0.24): > 50 µM

CC(C)(C)OC(=O)N1Cc2ccc(N[C@H](C(=O)O)c3cc(Cl)cc4[nH]ncc34)cc2C1
EC50 (Zika virus [3]; Zika virus, Vero C1008): > 50 µM | EC90 (Zika virus [3]; Zika virus, Vero C1008, Hill slope -0.446, Maximum measured 2.879 %, Minimum measured -1.465 %, R squared 0.442): > 50 µM | EC50 (dengue virus type 2 [4]; Dengue virus, Vero C1008): > 50 µM | EC90 (dengue virus type 2 [4]; Dengue virus, Vero C1008, Maximum measured 176.94 %, Minimum measured 116.898 %): > 50 µM
